From ChEMBL document CHEMBL5236632, “Membrane-Active Nonivamide Derivatives as Effective Broad-Spectrum Antimicrobials: Rational Design, Synthesis, and Biological Evaluation” (J Med Chem, 2022)
Converted amounts (≈) assume the structure as drawn. The source made the active and inactive calls. The calls are words filed in the database; no cut-off is given here.

Experiments:
Cell membrane [1] = assay: Induction of membrane depolarization in Escherichia coli ATCC 25922 assessed as increase in fluorescence intensity at 4 to 8 times MIC measured for 60 mins by DiSC3(5) dye based fluorescence method; type: subcellular
[2] = Selectivity ratio, HC50 for hemolytic activity in rabbit RBC to MIC for antibacterial activity against methicillin-resistant Staphylococcus aureus N315; type: toxicity; details: rabbit red blood cells
Klebsiella pneumoniae [3] = assay: Antibacterial activity against Klebsiella pneumoniae ATCC 10031 assessed as inhibition of visible growth measured after 18 to 24 hrs in presence of 24.3 ug/ml Mg2+ by broth dilution method; type: functional; details: time 18-24 hrs
Staphylococcus aureus [4] = assay: In vivo antibacterial activity against Staphylococcus aureus ATCC 29213 infected in C57BL/6 mouse keratitis model assessed as reduction in number of viable bacterial colonies in infected cornea at 5 mg/kg topically 4 times per day for 3 consecutive days; type: functional; details: route top, time 3 day
Staphylococcus aureus [5] = assay: Displacement of BODIPY-TR-cadaverin from Staphylococcus aureus lipoteichoic acid at 8 times of MIC incubated for 30 mins by fluorescence based analysis
Escherichia coli [6] = assay: Antibacterial activity against Escherichia coli ATCC 25922 assessed as inhibition of visible growth measured after 18 to 24 hrs by broth dilution method; type: functional; details: time 18-24 hrs
Staphylococcus aureus [7] = assay: Antibacterial activity against methicillin-resistant Staphylococcus aureus N315 assessed as inhibition of visible growth measured after 18 to 24 hrs in presence of 24.3 ug/ml Mg2+ by broth dilution method; type: functional; details: time 18-24 hrs
Acinetobacter baumannii [8] = assay: Antibacterial activity against Acinetobacter baumannii ATCC 17978 assessed as inhibition of visible growth measured after 18 to 24 hrs by broth dilution method; type: functional; details: time 18-24 hrs
Cell membrane [9] = assay: Induction of outer membrane permeability in Escherichia coli ATCC 25922 assessed as increase fluoresence intensity at 4 to 8 times of MIC measured for 60 mins by NPN uptake assay; type: subcellular
Staphylococcus aureus [10] = assay: Antibacterial activity against Staphylococcus aureus ATCC 29213 assessed as inhibition of visible growth measured after 18 to 24 hrs in presence of 24.3 ug/ml Mg2+ by broth dilution method; type: functional; details: time 18-24 hrs
Acinetobacter baumannii [11] = assay: Antibacterial activity against Acinetobacter baumannii R2889 assessed as inhibition of visible growth measured after 18 to 24 hrs by broth dilution method; type: functional; details: time 18-24 hrs
Cell membrane [12] = assay: Induction of membrane depolarization in Staphylococcus aureus ATCC 29213 assessed as increase in fluorescence intensity at 4 to 8 times MIC measured for 60 mins by DiSC3(5) dye based fluorescence method; type: subcellular
Escherichia coli [13] = assay: Inhibition of biofilm formation Escherichia coli ATCC 25922 assessed as decrease in biofilm formation at 0.78 ug/ml measured after 24 hrs by crystal violet staining assay; type: functional
[14] = Toxicity in C57BL/6 mouse cornea assessed as corneal damage at 5 mg/ml treated topically; type: tissue-based; details: in vivo, topical_or_ocular, route top
[15] = Selectivity ratio, HC50 for hemolytic activity in rabbit RBC to MIC for antibacterial activity against Staphylococcus aureus ATCC 29213; type: toxicity; details: rabbit red blood cells
Staphylococcus aureus [16] = assay: Eradication of biofilm in Staphylococcus aureus ATCC 29213 assessed as biofilm viability at 6.25 ug/ml measured after 24 hrs by crystal violet staining assay; type: functional; details: dose 6.25 µg/ml
[17] = Selectivity ratio, HC50 for hemolytic activity in rabbit RBC to MIC for antibacterial activity against methicillin-resistant Staphylococcus aureus NCTC 10442; type: toxicity; details: rabbit red blood cells
Escherichia coli [18] = assay: Antibacterial activity against Escherichia coli […] assessed as inhibition of visible growth measured after 18 to 24 hrs in presence of 24.3 ug/ml Mg2+ by broth dilution method; type: functional; details: time 18-24 hrs
Staphylococcus aureus [19] = assay: Antibacterial activity against methicillin-resistant Staphylococcus aureus NCTC 10442 assessed as inhibition of visible growth measured after 18 to 24 hrs in presence of 100 ug/ml Ca2+ by broth dilution method; type: functional; details: time 18-24 hrs
[20] = Cytotoxicity against mouse NCTC clone 929 cells assessed as cell viability after 24 hrs incubation byCCK-8 assay; type: toxicity, cell-based
Escherichia coli [21] = assay: Eradication of biofilm in Escherichia coli ATCC 25922 assessed as biofilm viability at […] ug/ml measured after 24 hrs by crystal violet staining assay; type: functional; details: dose […] microg/ml, 1.56 ug/mL
Staphylococcus aureus [22] = assay: Antibacterial activity against methicillin-resistant Staphylococcus aureus NCTC 10442 assessed as inhibition of visible growth measured after 18 to 24 hrs in presence of 3220 ug/ml Na+ by broth dilution method; type: functional; details: time 18-24 hrs
[23] = Cytotoxicity against HEK293 cells assessed as cell viability after 24 hrs incubation byCCK-8 assay; type: toxicity, cell-based; details: human
Escherichia coli [24] = assay: Eradication of biofilm in Escherichia coli ATCC 25922 assessed as biofilm viability at 6.25 ug/ml measured after 24 hrs by crystal violet staining assay; type: functional; details: dose 6.25 µg/ml
Escherichia coli [25] = assay: Eradication of biofilm in Escherichia coli ATCC 25922 assessed as biofilm viability at 0.78 ug/ml measured after 24 hrs by crystal violet staining assay; type: functional; details: dose 0.78 µg/ml
Staphylococcus aureus [26] = assay: Eradication of biofilm in Staphylococcus aureus ATCC 29213 assessed as biofilm viability at 0.20 ug/ml measured after 24 hrs by crystal violet staining assay; type: functional; details: dose 0.2 µg/ml
Staphylococcus aureus [27] = assay: Antibacterial activity against Staphylococcus aureus ATCC 29213 assessed as reduction in bacterial load at 8 time of MIC measured after 8 hrs by time kill assay; type: functional
Cell membrane [28] = assay: Induction of membrane integrity disruption in Staphylococcus aureus ATCC 29213 assessed as increase fluoresence intensity at 4 to 8 times of MIC measured for 60 mins by SYTOX Green uptake assay; type: subcellular
Klebsiella pneumoniae [29] = assay: Antibacterial activity against Klebsiella pneumoniae ATCC 10031 assessed as inhibition of visible growth measured after 18 to 24 hrs in presence of 100 ug/ml Ca2+ by broth dilution method; type: functional; details: time 18-24 hrs
Escherichia coli [30] = assay: Inhibition of biofilm formation Escherichia coli ATCC 25922 assessed as decrease in biofilm formation at 6.25 ug/ml measured after 24 hrs by crystal violet staining assay; type: functional
Escherichia coli [31] = assay: Eradication of biofilm in Escherichia coli ATCC 25922 assessed as biofilm viability at 25 ug/ml measured after 24 hrs by crystal violet staining assay; type: functional; details: dose 25 µg/ml
Staphylococcus aureus [32] = assay: Antibacterial activity against methicillin-resistant Staphylococcus aureus N315 assessed as inhibition of visible growth measured after 18 to 24 hrs in presence of 175.5 ug/ml K+ by broth dilution method; type: functional; details: time 18-24 hrs
Escherichia coli [33] = assay: Inhibition of biofilm formation Escherichia coli ATCC 25922 assessed as decrease in biofilm formation at 0.39 ug/ml measured after 24 hrs by crystal violet staining assay; type: functional
Lipopolysaccharide (LPS) = assay: Displacement of BODIPY-TR-cadaverin from Escherichia coli lipopolysaccharide at 8 times of MIC incubated for 30 mins by fluorescence based analysis
Staphylococcus aureus [34] = assay: Antibacterial activity against methicillin-resistant Staphylococcus aureus NCTC 10442 assessed as inhibition of visible growth measured after 18 to 24 hrs by broth dilution method; type: functional; details: time 18-24 hrs
Staphylococcus aureus [35] = assay: Inhibition of biofilm formation Staphylococcus aureus ATCC 29213 assessed as decrease in biofilm formation at 0.78 ug/ml measured after 24 hrs by crystal violet staining assay; type: functional

CCCCCCCCC(=O)NCc1ccc(OCCCCCCNC(=N)N)c(OCCCCCCNC(=N)N)c1
Activity (Cell membrane [1]): Active
selectivity ratio [2]: 173
MIC (Klebsiella pneumoniae [3]): 1.56 mg/L
Activity (Staphylococcus aureus [4]): 6.5 log10CFU/ml
Activity (Staphylococcus aureus [5]): 38.4%
MIC (Escherichia coli [6]): 1.56 mg/L (≈ 2.78 µM)
MIC (Staphylococcus aureus [7]): 0.39 mg/L
MIC (Acinetobacter baumannii [8]): 3.12 mg/L (≈ 5.56 µM)
Activity (Cell membrane [9]): Dose-Dependent Effect
MIC (Staphylococcus aureus [10]): 0.39 mg/L
MIC (Acinetobacter baumannii [11]): 6.25 mg/L (≈ 11.1 µM)
Activity (Cell membrane [12]): Active
inhibition at 0.78 µg/mL (Escherichia coli [13]): 88.9%
Activity [14]: Non-Toxic
selectivity ratio [15]: 173
Activity (Staphylococcus aureus [16]): 10.9%
selectivity ratio [17]: 173
MIC (Escherichia coli [18]): 1.56 mg/L
MIC (Staphylococcus aureus [19]): 0.39 mg/L
CC50 at 24 h [20]: 35.2 mg/L (≈ 62.7 µM)
Activity (Escherichia coli [21]): 93.71%
MIC (Staphylococcus aureus [22]): 0.39 mg/L
CC50 at 24 h [23]: 27.8 mg/L (≈ 49.5 µM)
Activity (Escherichia coli [24]): 22.66%
Activity (Escherichia coli [25]): 90.23%
Activity (Staphylococcus aureus [26]): 87.32%
Activity (Staphylococcus aureus [27]): 3.59 log10CFU/ml
Activity (Cell membrane [28]): Active
MIC (Klebsiella pneumoniae [29]): 3.12 mg/L
inhibition at 6.25 µg/mL (Escherichia coli [30]): 109%
Activity (Escherichia coli [31]): 7.05%
MIC (Staphylococcus aureus [32]): 0.39 mg/L
inhibition at 0.39 µg/mL (Escherichia coli [33]): 85.1%
Activity (Lipopolysaccharide (LPS)): 103%
MIC (Staphylococcus aureus [34]): 0.39 mg/L (≈ 0.694 µM)
inhibition at 0.78 µg/mL (Staphylococcus aureus [35]): 99.7%
